Usually logP stands for a log measure of how a compound divides between an organic and an aqueous phase. Low values mean a more hydrophilic compound, high ones a more lipophilic compound.

The compound `Cc1cc(C)nc(NC(=O)C(c2ccccc2)c2ccccc2)c1` came in with a logP of 4.77. The compound `COc1cccc2cc(C(=O)Nc3cc(C)cc(C)n3)oc12` showed a logP of 4.27.

Turning to `Cc1cc(C)nc(NC(=O)c2ccc([N+](=O)[O-])o2)c1`, the logP was determined as 2.39. The value for `Cc1cc(C)nc(NC(=O)c2cccc([N+](=O)[O-])c2)c1` was 3.13; that for `Cc1cc(C)nc(NC(=O)c2cccn2C)c1` was 2.42; that for `Cc1cc(C)nc(NC(=O)c2cc3ccccc3o2)c1` was 3.54. Next, `CC(=O)Oc1ccccc1C(=O)Nc1cc(C)cc(C)n1`: 2.35; `Cc1cc(C)nc(NC(=O)c2ccccc2)c1`: 3.09. Next, `Cc1cc(C)nc(NC(=S)c2ccc(C)o2)c1`: 3.2; `Cc1cc(C)nc(NC(=O)c2cccs2)c1`: 2.77. Compound `Cc1cc(C)nc(NC(=O)c2ccc(Br)o2)c1` came in with a logP of 3.22. The value for `Cc1cc(C)nc(NC(=O)c2cccc(Cl)c2)c1` was 3.88; that for `Cc1cc(C)nc(NC(=O)c2cc3ccccc3s2)c1` was 4.08; that for `Cc1cc(C)nc(NC(=O)c2ccco2)c1` was 2.25. The value for `Cc1cc(C)nc(NC(=O)c2cccc(Br)c2)c1` was 4.04; that for `Cc1cc(C)nc(NC(=O)Cc2ccc(Br)cc2)c1` was 4.07; that for `Cc1cc(C)nc(NC(=O)C(C)c2ccccc2)c1` (configuration not stated) was 3.67.

As for `Cc1cc(C)nc(NC(=O)c2cccc(F)c2)c1`, the logP was found to be 3.31. The value for `Cc1cc(C)nc(NC(=O)c2ccc(C)o2)c1` was 2.75; that for `Cc1cc(C)nc(NC(=O)c2cccc(C#N)c2)c1` was 2.88. Next, `Cc1cc(C)nc(NC(=S)c2ccccc2)c1`: 3.45; `Cc1cc(C)nc(NC(=O)c2ccc(Br)s2)c1`: 3.74.

These data come from the SangsterLogP compilation.
